According to US20250198988A1 (priority 2012, published 2025):

Experiments:
[1] = test system: blood specimen involving acute myeloid leukemia (AML); conditions: live cells from blood specimen, apoptosis by OD at 600 nm
Experimental: In the MiCK assay cancer cells from a patient are placed in a suspension of a given concentration of single cells or small cell clusters and allowed to adjust to conditions in multiple wells of a microtiter plate. […] The optical density of each well is then measured periodically, typically every few minutes, for a period of typically a few days. As a cell undergoes apoptosis-related blebbing, its optical density increases in a nearly linear fashion.
The assay may proceed by selecting an anti-cancer drug candidate and selecting at least one known cancer cell type on which to test the drug. The cancer cells may be suspended as a single-cell suspension in culture medium, such as RPMI. As used herein, a “single cell suspension” is a suspension of one or more cells in a liquid in which the cells are separated as individuals or in small clumps of 50 cells or fewer. […]
Suspended cells may be tested by placing samples in wells of a spectrophotometric plate. The cells may be suspended at any concentration such that during the spectrophotometric measurements of OD, the beam of the plate reader normally passes through the layer of cells. […]
The drug candidate and any control drugs or other control samples may be added to the wells after the adjustment period. […] Although many drug candidates may be water-soluble, drug candidates that are not readily soluble in water may also be tested.

[2] = test system: solid tumor specimen involving lung cancer metastases; experiment: MiCK assay of apoptosis on patient solid tumor specimen (Appendix A report); format: cell-based; conditions: live cells from solid tumor specimen, apoptosis by OD at 600 nm
Text: Such candidates may be mixed with any appropriate carrier.
Spectrophotometric data may be converted to kinetic units.
Kinetic units may be determined as follows:
KU=(VmaxDrug Treated−Vmaxcontrol)×60X y/(ODcell−ODblank).
Appendix A is a report based on tests conducted on a solid tumor specimen involving lung cancer metastases.

SMILES | maximum kinetic units (KU) [1] [KU] | maximum kinetic units (KU) [2] [KU]
O=P1(N(CCCl)CCCl)NCCCO1 (centres unmarked) [Cytoxan, cyclophosphamide] | 7.4 | –
CC(=O)O[C@H]1C(=O)[C@@]2(C)[C@H]([C@H](OC(=O)c3ccccc3)[C@]3(O)C[C@H](OC(=O)[C@H](O)[C@@H](NC(=O)c4ccccc4)c4ccccc4)C(C)=C1C3(C)C)[C@]1(OC(C)=O)CO[C@@H]1C[C@@H]2O [paclitaxel] | – | 7.6
